In the NIST ThermoML archive (doi:10.1016/j.fluid.2011.10.017):
± gives the expanded uncertainty stated by the source.

Columns and labels:
[1] = 298.15 K; 101.33 kPa; Liquid; Vibrating tube method
[2] = refractive index (Na D-line) (dimensionless); conditions: 298.15 K; 101.33 kPa; Liquid; Standard Abbe refractometry

SMILES	mass density [1]	refractive index [2]
c1ccsc1 [thiophene]	1058.61 ± 0.12 kg/m3	1.52523 ± 0.00035
Cc1ccccc1 [toluene]	862.18 ± 0.13 kg/m3	1.49367 ± 0.00035
CCCCCC [hexane]	655.09 ± 0.26 kg/m3	1.37236 ± 0.00039
c1ccncc1 [pyridine]	978.24 ± 0.1 kg/m3	1.50636 ± 0.00035
CCCCCC[n+]1ccc(C)cc1C.O=S(=O)([N-]S(=O)(=O)C(F)(F)F)C(F)(F)F	1339.39 ± 1.6 kg/m3	1.45336 ± 0.00052
